Laboratory results: ChEMBL document CHEMBL1154316, “Structure-activity relationship study of EphB3 receptor tyrosine kinase inhibitors” (Bioorg Med Chem Lett, 2009)

Experiments:
[1] = Intrinsic clearance in mouse liver microsomes assessed as per mg of protein at 3 uM measured up to 60 mins; assay type: ADME, Microsome; conditions: for microsomal CLint at 3 µM: liver microsomes
[2] = Half life in mouse liver microsomes at 3 uM measured up to 60 mins; assay type: ADME, Microsome; conditions: for half-life at 3 µM: liver microsomes

Row | microsomal CLint at 3 µM [1] [µL/min/mg] | half-life at 3 µM [2] [min] | CL ([1]; microsomes, 1 h, 3 µM) [µL/min/mg] | t1/2 ([2]; microsomes, 1 h, 3 µM) [min] | SMILES
1 |  |  | 261 | 5.3 | O=C(Nc1ccccc1Cl)c1cnn2ccccc12
2 | 51 | 27 |  |  | O=C(Nc1ccccc1Cl)c1cnn2ccc(-c3ccccc3)cc12

The next lines start with the molecule.

Row | SMILES | microsomal CLint at 3 µM [1] [µL/min/mg] | half-life at 3 µM [2] [min] | CL ([1]; microsomes, 1 h, 3 µM) [µL/min/mg] | t1/2 ([2]; microsomes, 1 h, 3 µM) [min]
3 | O=C(Nc1ccccc1Cl)c1cnc2ccccn12 | 361 | 3.8 |  | 
4 | O=C(Nc1ccccc1Cl)c1cnn2ccc(N3CCCCC3)cc12 | 167 | 8.3 |  | 
5 | O=C(Nc1ccccc1Cl)c1cnc2ccc(N3CCCCC3)cn12 | 71 | 20 |  | 
6 | O=C(Nc1ccccc1Cl)c1cnc2ccc(C3CCNCC3)cn12.O=C(O)C(=O)O |  | 348 |  | 
7 | O=C(Nc1ccccc1Cl)c1cnc2ccc(-c3ccccc3)cn12 | 26 | 53 |  | 
